Usually IC50 stands for the midpoint of a concentration-inhibition curve.

The structures appear in SMILES notation. Entries after “also recorded” stand apart in the source; their conditions may differ.

This note sets out measurements from publication PMC7055873 (PLoS ONE, 2020).

This assay addresses H275Y mutant A(H1N1)pdm09 virus, neuraminidase (NA) (Influenza A virus, UniProt A0A0X9QTS2, H275Y).

As to `CCC(CC)[C@H](NC(C)=O)[C@@H]1[C@H](O)[C@@H](C(=O)O)C[C@H]1N=C(N)N` [Peramivir, peramivir], it took 0.0219 µM to reach half-maximal inhibition (IC50) and the susceptibility interpretation result is listed as “highly reduced inhibition; also recorded: high reduced inhibition”.

As for `CCOC(=O)C1=C[C@@H](OC(CC)CC)[C@H](NC(C)=O)[C@@H](N)C1` [Oseltamivir, oseltamivir], the susceptibility interpretation result is “highly reduced inhibition; also recorded: high reduced inhibition”.
